The Biogen ADME set (Fang et al. 2023)
In brackets after ≈: the same amount, converted by molar mass.

Details: for aqueous solubility: pH 6.8

Compound | MDR1-MDCK efflux ratio | intrinsic clearance, human liver microsomes | intrinsic clearance, rat liver microsomes | aqueous solubility
CN(C)c1cnn(CCC(C#N)(c2ccccc2)c2ccccc2)c(=O)c1 | 2.74 | 124 mL/min/kg | 1260 mL/min/kg | 22.2 µg/mL (≈ 62 µM)
Cc1cccc(NC(=O)c2ccc3ccccc3c2)n1 | 0.126 | 91.8 mL/min/kg | 209 mL/min/kg | 1.17 µg/mL (≈ 4.46 µM)
COC[C@@H](O)Cn1c(C)nc2ccccc21 | 1.43 | ≤ 4.74 mL/min/kg | ≤ 10.7 mL/min/kg | 
Cc1noc(CCNc2ncnc3ccccc23)n1 | 0.926 | ≤ 4.74 mL/min/kg | 94.4 mL/min/kg | 38.2 µg/mL (≈ 149 µM)
O=C(Nc1ccccc1)c1scnc1-c1ccccc1 |  | 110 mL/min/kg | 1040 mL/min/kg | 
COc1ncccc1NC(=O)c1cccc(C)n1 |  | 150 mL/min/kg | 184 mL/min/kg | 23.9 µg/mL (≈ 98.2 µM)
CN1CCN(c2ccc3nc(-c4cc(C(C)(C)C)c(OCCCC(=O)NCCCN=[N+]=[N-])c(C(C)(C)C)c4)[nH]c3c2)CC1 |  | 177 mL/min/kg | 212 mL/min/kg | 
CNC(=O)c1sc2ncccc2c1[C@H]1CC[C@H](CNC(=O)COc2ccccc2)CC1 | 31 | 103 mL/min/kg | 1070 mL/min/kg | 91.2 µg/mL (≈ 208 µM)
CCOc1ccc(Oc2ccc(OCc3cc(F)ccc3F)cc2)c(N)c1 |  | 8.79 mL/min/kg | 104 mL/min/kg | 
CCCc1cc(C(=O)Nc2ccc(-c3nnc(C)[nH]3)cc2)no1 | 0.865 | 131 mL/min/kg | 290 mL/min/kg | 
Cc1nc(-c2cccnc2)sc1C(=O)Nc1ccccc1-c1cn2c(CN3CCOCC3)csc2n1 | 3.28 |  |  | 0.65 µg/mL (≈ 1.26 µM)
Cc1nc(C)c(C)c(NCc2cc(-c3ccc(F)cc3)no2)n1 | 0.906 | 20.3 mL/min/kg | 242 mL/min/kg | 37.5 µg/mL (≈ 120 µM)
CC(C)NC(=O)Cn1nnnc1C(C)(C)C | 1.25 | ≤ 4.74 mL/min/kg | 27.1 mL/min/kg | 23.3 µg/mL (≈ 103 µM)
Cc1ccc(CN2CC[C@H](c3nnc(-c4ccccc4F)o3)C2)o1 | 0.493 | 27.7 mL/min/kg | 790 mL/min/kg | 45.4 µg/mL (≈ 139 µM)

Continued, values first:

MDR1-MDCK efflux ratio | intrinsic clearance, human liver microsomes | intrinsic clearance, rat liver microsomes | aqueous solubility | Compound
0.896 | ≤ 4.74 mL/min/kg | 61.3 mL/min/kg | 45.1 µg/mL (≈ 163 µM) | O=C(CN1CCCc2ccc(F)cc21)N1CCNC1=O
1.75 | 24.2 mL/min/kg | 1280 mL/min/kg |  | NS(=O)(=O)N1CCN(Cc2c(F)cccc2N2CCCC2)CC1
1.13 | 26.6 mL/min/kg | 269 mL/min/kg |  | CCCCN1CCN(C(=O)c2cccc(-c3ccc(CO)cc3)c2)CC1
9.45 | 129 mL/min/kg | 561 mL/min/kg | 45.3 µg/mL (≈ 104 µM) | CCCn1cc(C(=O)N2CCC(c3n[nH]cc3C(=O)N(C)Cc3ccccc3)CC2)cn1
17.8 | 36.9 mL/min/kg | 74.1 mL/min/kg | 56.3 µg/mL (≈ 168 µM) | Cc1ccc2nc3c(c(C(=O)NCc4cnn(C)c4)c2c1)CCCC3
19.7 | ≤ 4.74 mL/min/kg | ≤ 10.7 mL/min/kg | 47.8 µg/mL (≈ 153 µM) | Cc1cc(F)ccc1CC(=O)N[C@@H]1CCOC[C@H]1OCCO
9.7 | 68.3 mL/min/kg | 707 mL/min/kg | 22.1 µg/mL (≈ 49 µM) | COc1cc2c(cc1OC)CN(C(=O)C1CCCN(S(=O)(=O)c3cccs3)C1)CC2 (stereo unspecified)
